Test results as given in PubChem BioAssay AID1918999 (Molecular Pharmacology Branch, DTP, NCI, 2023).
Each block holds one compound with its values, some of them ahead of it.

Tested on: 556581-035-R-J1-PDC complex spheroid growth
Test: Anticancer human tumor 556581-035-R-J1-PDC patient-derived ovarian carcinoma cell line growth inhibition [AhR]
Conditions: for IC50: curve of first compound; for viability, T/C: stronger effect = lower value
Description: Multicellular complex tumor spheroid response to aryl hydrocarbon receptor antagonists in combination with a variety of drugs and investigational agents in selected tumor cell lines
The current study was undertaken to assess response to aryl hydrocarbon receptor antagonists in combination with standard-of-care drugs and investigational agents in solid tumor complex spheroid models. Complex spheroids include a stromal component modeled by human endothelial cells (HUVEC) and fibroblasts modeled by human mesenchymal stem cells (MSCs). The concentration ranges selected for each drug and investigational agent were based upon clinically achievable concentrations if the clinical Cmax of the agent was known.
Compounds. The drugs and investigational agents: BAY 2416964 (NSC825713), GNF351 (NSC835774), CH-223191 (NSC835775), CPI-455 (NSC825282), aza-TdCyd (NSC777586), decitabine (NSC127716), belinostat (NSC758774), entinostat (NSC756642), pevonedistat (NSC761192), tazemetostat (NSC777109), talazoparib (NSC765396), olaparib (NSC753686), selinexor (NSC780203), nedisertib (M3814, NSC802822), bortezomib (NSC756655), venetoclax (NSC766270), doxorubicin (NSC123127), elimusertib (BAY189344, NSC800525), ceralasertib (AZD6738, NSC777638), TAK-243 (NSC785004), alisertib (NSC759677), etoposide (NSC141540), topotecan (NSC609699), eribulin (NSC707389), gemcitabine (NSC613327), carboplatin (NSC241240), cisplatin (NSC119875), and SN-38 (NSC673596) were obtained from the National Cancer Institute (NCI) Developmental Therapeutics Program Chemical Repository (32). The FDA-approved anticancer drug set is available from the Developmental Therapeutics Program at https://dtp.cancer.gov/organization/dscb/obtaining/available plates.htm. […] The stock solutions were prepared in dimethyl sulfoxide (DMSO, Sigma-Aldrich, St. Louis, MO, cat. D2650), except for the platinum compounds which were prepared in saline (Quality Biological, Gaithersburg, MD, cat. 114-055-101), at 800-fold the tested concentration and stored at -70 degrees C prior to their use. All drugs and investigational agents were tested over a range starting from a high concentration at or near the clinical Cmax and decreasing in half-log increments. If the clinical Cmax for an agent had not been determined, the highest concentration tested was 10 microM (Table 1).
Cell Culture. All cells were maintained in an incubator at 37 degrees C and 5% CO2 with 95% humidity. The PDC lines were cultured according to standard operating procedures established by the NCI PDMR (https://pdmr.cancer.gov). Briefly, all PDCs were thawed and cultured in Matrigel-coated flasks prepared with a working solution of 1X Ham's F-12 nutrient mix, without supplementation (Invitrogen, Waltham, MA, cat. 11765054), 100 U/mL penicillin-streptomycin (Invitrogen, cat. 15140122), and 2.5% Matrigel (Corning Inc., Corning, NY, cat. 354248) for the first three passages. All PDCs were cultured in complete DMEM/F-12 media containing advanced DMEM/F-12 (Invitrogen, cat. 12634028), 4.9% defined fetal bovine serum, heat inactivated (HyClone Laboratories Inc., Logan, UT, cat. SH30070.03HI), 389 ng/mL hydrocortisone (Sigma-Aldrich, cat. H4001), 9.7 ng/mL human EGF recombinant protein (Invitrogen, cat. PHG0313), 23.4 microg/mL adenine (Sigma-Aldrich, cat. A2786), 97.3 U/mL penicillin-streptomycin (Invitrogen, cat. 15140122), 1.9 mM L-glutamine (Invitrogen, cat. 25030081), and 9.7 microM Y-27632 dihydrochloride (Tocris Bioscience, Bristol, United Kingdom, cat. 1254). The PDCs were cultured in complete DMEM/F12 media without 10 microM Y-27632 dihydrochloride for at least two passages prior to the screen. The established cell lines NCI-H1341 and […] were cultured in DMEM/F-12, HEPES (Invitrogen, cat. 11330032), 5% defined fetal bovine serum (HyClone Laboratories Inc., cat. SH30070.03), ITS premix universal culture supplement [insulin (5 microg/mL), transferrin (5 microg/mL), and selenious acid (5 ng/mL)] […]

[1] = second compound 0.1 µM, first compound 0.0316 µM
[2] = second compound 0.1 µM, first compound 0.1 µM
[3] = second compound 0.1 µM, first compound 0.316 µM
[4] = second compound 0.1 µM, first compound 1 µM
[5] = second compound 0.1 µM, first compound 3.16 µM
[6] = second compound 0.1 µM, first compound 10 µM
[7] = second compound 0.316 µM, first compound 0.0316 µM
[8] = second compound 0.316 µM, first compound 0.1 µM
[9] = second compound 0.316 µM, first compound 0.316 µM
[10] = second compound 0.316 µM, first compound 1 µM
[11] = second compound 0.316 µM, first compound 3.16 µM
[12] = second compound 0.316 µM, first compound 10 µM
[13] = second compound 1 µM, first compound 0.0316 µM
[14] = second compound 1 µM, first compound 0.1 µM
[15] = second compound 1 µM, first compound 0.316 µM
[16] = second compound 1 µM, first compound 1 µM
[17] = second compound 1 µM, first compound 3.16 µM
[18] = second compound 1 µM, first compound 10 µM
[19] = second compound 3.16 µM, first compound 0.0316 µM
[20] = second compound 3.16 µM, first compound 0.1 µM
[21] = second compound 3.16 µM, first compound 0.316 µM
[22] = second compound 3.16 µM, first compound 1 µM
[23] = second compound 3.16 µM, first compound 3.16 µM
[24] = second compound 3.16 µM, first compound 10 µM
[25] = second compound 10 µM, first compound 0.0316 µM
[26] = second compound 10 µM, first compound 0.1 µM
[27] = second compound 10 µM, first compound 0.316 µM
[28] = second compound 10 µM, first compound 1 µM
[29] = second compound 10 µM, first compound 3.16 µM
[30] = second compound 10 µM, first compound 10 µM
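For viability, T/C in this document: compound exposure lasted 7 days; 100% = DMSO vehicle control growth.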

- IC50 (second compound 0.1 µM): 5 nM
- IC50 (second compound 0.316 µM): 4.57 nM
- IC50 (second compound 1 µM): 5.43 nM
- IC50 (second compound 3.16 µM): 4.7 nM
- IC50 (second compound 10 µM): 5.22 nM
SMILES: CC(C)CC(NC(=O)C(Cc1ccccc1)NC(=O)c1cnccn1)B(O)O (stereo not given) + CC(CO)NC(=O)c1cc(-c2ccc(Cl)cc2)nn(-c2cnn(C)c2)c1=O
- viability, T/C (second compound 0.1 µM, first compound 0.000949 µM): 91.6%
- viability, T/C (second compound 0.1 µM, first compound 0.003 µM): 88.4%
- viability, T/C (second compound 0.1 µM, first compound 0.00949 µM): 1.95%
- viability, T/C (second compound 0.1 µM, first compound 0.03 µM): 0.49%
- viability, T/C (second compound 0.1 µM, first compound 0.0949 µM): 0.12%
- viability, T/C (second compound 0.1 µM, first compound 0.3 µM): 0.33%
- viability, T/C (second compound 0.316 µM, first compound 0.000949 µM): 106%
- viability, T/C (second compound 0.316 µM, first compound 0.003 µM): 77.9%
- viability, T/C (second compound 0.316 µM, first compound 0.00949 µM): 1.51%
- viability, T/C (second compound 0.316 µM, first compound 0.03 µM): 2.26%
- viability, T/C (second compound 0.316 µM, first compound 0.0949 µM): 0.2%
- viability, T/C (second compound 0.316 µM, first compound 0.3 µM): 0.8%
- viability, T/C (second compound 1 µM, first compound 0.000949 µM): 105%
- viability, T/C (second compound 1 µM, first compound 0.003 µM): 99.7%
- viability, T/C (second compound 1 µM, first compound 0.00949 µM): 3.31%
- viability, T/C (second compound 1 µM, first compound 0.03 µM): 0.19%
- viability, T/C (second compound 1 µM, first compound 0.0949 µM): 0.15%
- viability, T/C (second compound 1 µM, first compound 0.3 µM): 0.27%
- viability, T/C (second compound 3.16 µM, first compound 0.000949 µM): 85.7%
- viability, T/C (second compound 3.16 µM, first compound 0.003 µM): 81%
- viability, T/C (second compound 3.16 µM, first compound 0.00949 µM): 0.92%
- viability, T/C (second compound 3.16 µM, first compound 0.03 µM): 2.07%
- viability, T/C (second compound 3.16 µM, first compound 0.0949 µM): 1.26%
- viability, T/C (second compound 3.16 µM, first compound 0.3 µM): 1.55%
- viability, T/C (second compound 10 µM, first compound 0.000949 µM): 99.6%
- viability, T/C (second compound 10 µM, first compound 0.003 µM): 94.2%
- viability, T/C (second compound 10 µM, first compound 0.00949 µM): 2.36%
- viability, T/C (second compound 10 µM, first compound 0.03 µM): 0.3%
- viability, T/C (second compound 10 µM, first compound 0.0949 µM): 0.55%
- viability, T/C (second compound 10 µM, first compound 0.3 µM): 0.95%

- IC50 (second compound 0.1 µM): 1340 nM
- IC50 (second compound 0.316 µM): 1590 nM
- IC50 (second compound 1 µM): 1660 nM
- IC50 (second compound 3.16 µM): 1440 nM
- IC50 (second compound 10 µM): 1560 nM
SMILES: Nc1ccccc1NC(=O)c1ccc(CNC(=O)OCc2cccnc2)cc1 + CC(CO)NC(=O)c1cc(-c2ccc(Cl)cc2)nn(-c2cnn(C)c2)c1=O
- viability, T/C [1]: 96.9%
- viability, T/C [2]: 102%
- viability, T/C [3]: 78%
- viability, T/C [4]: 53.2%
- viability, T/C [5]: 36.9%
- viability, T/C [6]: 17.5%
- viability, T/C [7]: 107%
- viability, T/C [8]: 91%
- viability, T/C [9]: 87.1%
- viability, T/C [10]: 58.7%
- viability, T/C [11]: 34.9%
- viability, T/C [12]: 15.4%
- viability, T/C [13]: 118%
- viability, T/C [14]: 100%
- viability, T/C [15]: 77.3%
- viability, T/C [16]: 60.8%
- viability, T/C [17]: 38.6%
- viability, T/C [18]: 17.8%
- viability, T/C [19]: 105%
- viability, T/C [20]: 102%
- viability, T/C [21]: 84.8%
- viability, T/C [22]: 58%
- viability, T/C [23]: 33.2%
- viability, T/C [24]: 20.6%
- viability, T/C [25]: 106%
- viability, T/C [26]: 103%
- viability, T/C [27]: 88.6%
- viability, T/C [28]: 62.8%
- viability, T/C [29]: 30.4%
- viability, T/C [30]: 12.6%

- IC50 (second compound 0.1 µM): 1180 nM
- IC50 (second compound 0.316 µM): 1280 nM
- IC50 (second compound 1 µM): 1470 nM
- IC50 (second compound 3.16 µM): 1190 nM
- IC50 (second compound 10 µM): 1080 nM
SMILES: O=C(C=Cc1cccc(S(=O)(=O)Nc2ccccc2)c1)NO + CC(CO)NC(=O)c1cc(-c2ccc(Cl)cc2)nn(-c2cnn(C)c2)c1=O
- viability, T/C [1]: 96.6%
- viability, T/C [2]: 88.9%
- viability, T/C [3]: 75.1%
- viability, T/C [4]: 53.6%
- viability, T/C [5]: 27.9%
- viability, T/C [6]: 3.75%
- viability, T/C [7]: 94%
- viability, T/C [8]: 91.2%
- viability, T/C [9]: 80.6%
- viability, T/C [10]: 56.2%
- viability, T/C [11]: 25.7%
- viability, T/C [12]: 3.23%
- viability, T/C [13]: 105%
- viability, T/C [14]: 96.8%
- viability, T/C [15]: 88%
- viability, T/C [16]: 63.6%
- viability, T/C [17]: 24.9%
- viability, T/C [18]: 2.84%
- viability, T/C [19]: 98.7%
- viability, T/C [20]: 93.7%
- viability, T/C [21]: 74.1%
- viability, T/C [22]: 54.1%
- viability, T/C [23]: 28.1%
- viability, T/C [24]: 3.83%
- viability, T/C [25]: 105%
- viability, T/C [26]: 104%
- viability, T/C [27]: 75.8%
- viability, T/C [28]: 53%
- viability, T/C [29]: 24.3%
- viability, T/C [30]: 4.22%
